Experimental data: patent publication US20090215638A1, “ANTIBIOTIC SUSCEPTIBILITY AND VIRULENCE FACTOR DETECTION IN PSEUDOMONAS AERUGINOSA” (priority 2005, published 2009)

Assays:
[1] = test system: P. aeruginosa clinical isolates; test: Antibiotic susceptibility testing, NEG MIC Type 30 panel on MicroScan WalkAway-96 SI, MICs interpreted according to NCCLS guidelines; assay type: cell-based, Pseudomonas aeruginosa; details: for 60 MIC: MIC of resistant isolates
Excerpt: The wild-type reference strain P. aeruginosa PAO1 was obtained from the ATCC (AT47085). The other P. aeruginosa strains were collected from patients at the Robert Bosch Hospital in Stuttgart, Germany. They were recovered from respiratory samples (n=51), swabs (n=5), urine (n=2) and feces (n=2). All isolates were identified with the API 20NE system (bioMerieux, Marcy l'Etoile, France) and the NEG Breakpoint Combo Type 30 panel on the MicroScan WalkAway ®-96 SI system (Dade Behring, Liederbach, Germany). All bacterial strains were either routinely cultured at 37° C. on Mueller-Hinton (MH) agar or grown in Luria Bertani broth (LB).
The antibiotic susceptibility was determined with the NEG MIC Type 30 panel on the MicroScan WalkAway ®-96 SI system. The MICs were interpreted according to the NCCLS guidelines.
The test collective of P. aeruginosa isolates was recovered from three intensive care units (ICU) or other hospital wards as far as an unusual multidrug resistance was observed. […] 4.

[2] = test system: P. aeruginosa clinical isolates; parameters: species or system Pseudomonas aeruginosa; details: predicted from mutations and resistance genes found by array in 60 isolates
Method: Chromosomal DNA was extracted with the QIAmp DNA Mini Kit, plasmid DNA with the QIAprep Spin Miniprep Kit according to manufacturer's instructions (Qiagen, Hilden, Germany). A set of 4 multiplex PCRs (Tab. 1) was set up to amplify the sequences of interest from the chosen genes. The PCRs were carried out with the Advantage®-GC Genomic PCR Kit (BD Bioscience, San Jose, USA) according to manufacturer's instructions, for fluorescence labeling 5 μl of each 1 mM dNTP was used, for dCTP a 2:3 mixture of Cy3-dCTP and dCTP. The cycle reactions consisted of 30 cycles of 30 s at 95° C., 30 s at 55° C. and 1 min at 72° C. PCR products were purified with the QIAquick PCR Purification Kit (Qiagen, Hilden, Germany) according to the manufacturer's instructions. The quality and sizes of PCR products were checked on a lab-on-a-chip Bioanalyzer 2100 electrophoresis with the DNA 1500 LabChip kit (Agilent, Böblingen, Germany). Sequencing was performed on the ABI PRISM® 310 Genetic Analyzer using the BigDyee® Terminator Cycle Sequencing Kit v1.1 (Applied Biosystems, Foster City, USA). The manufacturer's protocol was followed using the same primers as for the multiplex PCRS. […]
The oligonucleotide arrays were scanned with a arrayWoRx Biochip Reader (Applied Precision, Marlborough, UK). The scanner settings for fluorescence signal acquisition were set to “High Precision” and 0.2 s acquisition time. […]

[3] = Table 3, test collective of 60 clinical isolates
[4] = Table 6, phenotypic resistance rate, 60 clinical isolates
[5] = Table 6, phenotypic resistance, 60 clinical isolates

| Compound | % of resistant isolates out of 60 [1, 3] | Number of resistant isolates out of 60 [1, 3] | 60 MIC ([1]; Table 6) | % of resistant isolates out of 60 [1, 4] | Number of resistant isolates out of 60 [1, 5] | susceptibility rate ([1]; test collective of isolates) | Susceptibility profile, Isolate 1 ([1]; first of 3 consecutive isolates from the same patient) | Susceptibility profile, Isolate 3 ([1]; last of 3 consecutive isolates from the same patient, within three weeks) | Susceptibility profile, Isolate 2 ([1]; second of 3 consecutive isolates from the same patient, collected one week after the first) | resistance rate ([1]; test collective of isolates) | Cumulative resistance predicttion deduced from array [2] |
| --- | --- | --- | --- | --- | --- | --- | --- | --- | --- | --- | --- |
| CC(C)(O/N=C(\C(=O)N[C@@H]1C(=O)N2C(C(=O)[O-])=C(C[n+]3ccccc3)CS[C@H]12)c1csc(N)n1)C(=O)O [Ceftazidim, ceftazidime] | 33% | 20 | >16 µg/mL | 33% | 20 | – | – | – | – | – | – |
| C[C@@H](O)[C@H]1C(=O)N2C(C(=O)O)=C(SCCN=CN)C[C@H]12 [Imipenem, imipenem] | – | – | – | – | – | less than 55% | – | – | – | – | – |
| NC[C@H]1O[C@H](O[C@H]2[C@H](O)[C@@H](O[C@H]3O[C@H](CO)[C@@H](O)[C@H](N)[C@H]3O)[C@H](N)C[C@@H]2N)[C@H](N)C[C@@H]1O [Tobramycin, tobramycin] | – | – | – | – | – | – | susceptible | resistance | susceptible | – | – |
| colistin | 0% | 0 | – | 0% | 0 | – | – | – | – | 0% | 0% |
| gentamicin | 37% | 22 | >8 µg/mL | 37% | 22 | – | – | – | – | – | 45% |
| piperacillin/tazobactam | 33% | 20 | >64 µg/mL | 33% | 20 | – | – | – | – | – | – |
